Here are results for one compound from PMC6213879, “Synthesis and Biological Evaluation of Novel Dehydroabietic Acid-Oxazolidinone Hybrids for Antitumor Properties” (International Journal of Molecular Sciences, 2018).

The test system of series [1] is CNE-2 human nasopharyngeal carcinoma cell line. In words: MTT cytotoxicity assay, CNE-2. It is filed as cell-based. The conditions noted are these: Homo sapiens, CNE-2, 48 h, mean ± SD from three independent experiments. How it is done:
(§1) The in vitro antiproliferative activity of the DHAA derivatives 3a–o and 4a–o against four human cancer cell lines (MGC-803 human gastric cancer cell line, CNE-2 human nasopharyngeal carcinoma cell line, SK-OV-3 human ovarian carcinoma cell line, NCI-H460 human lung cancer cell line) and the human normal liver cell line LO2 were evaluated by MTT (methyl thiazolytetrazolium) assay and compared with the parent compound DHAA and the positive control cisplatin in each panel.
(§2) The cytotoxicity of the compounds was evaluated against NCI-H460, MGC-803, SK-OV-3, CNE-2 and LO2 using an MTT assay. Cells were grown on 96-well micro-plates at a density of 4 × 10^3 cells per well in DMEM (dulbecco’s modified eagle medium) medium with 10% FBS (fetal bovine serum). The plates were incubated at 37 °C with 5% CO2. The cells were then exposed to different concentrations of target compounds and cisplatin and incubated for another 48 h. Control wells were formed by culture media with the maximum concentration of DMSO used in each assay (1‰). The cells were stained with 20 µL of MTT in an incubator for about 4 h. The medium was thrown away and replaced by […] DMSO. The absorbance (OD) value was read at 490 nm on an enzyme labeling instrument. Each experiment was repeated at least three times to obtain the mean values.

The test system of series [2] is MGC-803 human gastric cancer cell line. In words: MTT cytotoxicity assay, MGC-803. It is filed as cell-based. The conditions noted are these: Homo sapiens, MGC-803, 48 h, mean ± SD from three independent experiments. How it is done:
as §1, §2

In series [3] the test system is SK-OV-3 human ovarian carcinoma cell line. In words: MTT cytotoxicity assay, SK-OV-3. It is filed as cell-based. The note with it: Homo sapiens, SK-OV-3, 48 h, mean ± SD from three independent experiments. As to the method: as §1, §2
The test system of series [4] is NCI-H460 human lung cancer cell line. In words: MTT cytotoxicity assay, NCI-H460. In kind it is cell-based. The conditions noted are these: Homo sapiens, NCI-H460, 48 h, mean ± SD from three independent experiments. As to the method:
as §1, §2

The subject of series [5] is MGC-803 cells. In words: Cell cycle analysis by PI staining and flow cytometry. In kind it is cell-based, human. The conditions noted are these: MGC-803, 48 h. As to the method: To determine the possible role of cell cycle arrest in 4j-induced growth inhibition, MGC-803 cells were treated with different concentrations of compound 4j for 48 h. The cell cycle distribution was investigated by flow cytometric analysis following the staining of DNA with propidium iodide (PI).
The MGC-803 cell line was treated with different concentrations of compound 4j. After 48 h of incubation, cells were washed twice with ice-cold PBS, fixed and permeabilized with ice-cold 70% ethanol at −20 °C overnight. The cells were treated with 100 µg /mL RNase A at 37 °C for 30 min, after being washed with ice-cold PBS, and finally stained with 1 mg/mL propidium iodide (PI) (BD, Pharmingen) in the dark at 4 °C for 30 min. Analysis was performed with the system software (Cell Quest; BD Biosciences, Becton Dickinson FACSAriaIII, NY, USA).

Series [6] concerns MGC-803 cells. In words: Apoptosis analysis, Annexin-V/FITC and PI, flow cytometry. It is filed as cell-based, human. The conditions noted are these: 48 h, control 9.3%. As to the method:
In order to further confirm whether the 4j-induced reduction in cell viability was responsible for the induction of apoptosis, MGC-803 cells were investigated using the PI and Annexin-V/FITC (fluorescein isothiocyanate) and the number of apoptotic cells was estimated by flow cytometry, after the treatment of the MGC-803 cells at concentrations of 5 and 10 µM for 48 h. The results are illustrated in Figure 2.
MGC-803 cells were seeded at a concentration of 2 × 10^6 cells/mL of the DMEM medium with 10% FBS on 6-well plates to the final volume of 2 mL, and then treated with compound 4j at different concentrations for 48 h. After 48 h, the cells were collected and washed twice with PBS and then resuspended in 100 µL 1 × binding buffer, The cells were subjected to 5 µL of FITC Annexin V and 5 µL propidium iodide (PI) staining using an annexin-V FITC apoptosis kit (BD, Pharmingen) and incubated for 30 min at RT (25 °C) in the dark. Then, 100µL 1× binding buffer were added. The apoptosis ratio was quantified by system software (Cell Quest; BD Biosciences, Becton Dickinson FACSAriaIII, NY, USA).

For series [7], the system named is human normal liver cell line LO2. In words: MTT cytotoxicity assay, normal LO2 cells. It is filed as cell-based. The conditions noted are these: Homo sapiens, L02, 48 h, mean ± SD from three independent experiments. How it is done:
as §1, §2

In series [8] the test system is MGC-803 cells. In words: Hoechst 33258 staining assay. The note with it: 48 h. In kind it is cell-based, human. How it is done: Hoechst 33258 is a dye that is utilized to identify the transitions of a cell’s nuclear morphology. To determine the morphological changes induced by compound 4j in MGC-803 cells, Hoechst 33258 staining was carried out. MGC-803 cells were treated with various concentrations (0, 1.0, 5.0, 10 µM) of compound 4j for 48 h, and stained with Hoechst 33258.
Cells grown on a sterile cover slip in six-well plates were treated with different concentrations of the test compound for 48 h. The culture medium containing compounds was removed, and the cells were fixed in 4% paraformaldehyde for 10 min. After being washed twice with PBS, the cells were stained with 0.5 mL of Hoechst 33258 (Beyotime, Shanghai, China) for 5 min, and then again washed twice with PBS. The stained nuclei were observed under an OLYMPUS 1X73 fluorescence microscope using 350 nm for excitation and 460 nm for emission.

In series [9] the test system is MGC-803, CNE-2, SK-OV-3, NCI-H460. In words: MTT cytotoxicity assay, summary over the four cancer cell lines. In kind it is cell-based. The note with it: Homo sapiens; range over MGC-803, CNE-2, SK-OV-3, NCI-H460; read-out: IC50 values ranging against all the test cell lines. As to the method:
as §1, §2

Compound `CC(C)c1ccc2c(c1)CCC1[C@](C)(C(=O)OCC3CN(c4ccc(F)cc4)C(=O)O3)CCC[C@]21C` (stereo partly drawn) [Compound 4j, (1R,4aS)-(3-(4-Fluorophenyl)-2-Oxooxazolidin-5-yl)Methyl-7-Isopropyl-1,4a-Dimethyl-1,2,3,4,4a,9,10,10a-Octahydrophenanthrene-1-Carboxylate] gave a melting point of 112.8 to 117.5 °C. Besides, in series [1], the half-maximal inhibitory concentration (IC50) came to 17.8 ± 4.69 µM. The concentration for half-maximal inhibition (IC50) in [2] was 3.82 ± 0.18 µM. In addition, it took 4.66 ± 2.13 µM to reach half-maximal inhibition in series [3] (IC50). Also, in series [4], the concentration for half-maximal inhibition (IC50) was determined as 8.44 ± 0.36 µM. In the series with MGC-803 cells [5], the cell cycle arrest entry is “mainly arrested the MGC-803 cells in the G1 phase”. In the series on MGC-803 cells [6] (5 µM), the “percentage of all apoptotic cells (early and late)” value was found to be 28.5%. Further, the “percentage of all apoptotic cells (early and late)” value in the series on MGC-803 cells [6] (10 µM) came out at 34.3%. Also, in [7], the IC50 is greater than 100 µM. The “nuclear morphological changes (Hoechst 33258)” value in the series on MGC-803 cells [8] (10.0 µM) was “number of apoptotic nuclei significantly increased”. Also, in the series with MGC-803 cells [8] (1.0 and 5.0 µM), the “nuclear morphological changes (Hoechst 33258)” value is given as “some exhibited bright-blue fluorescence due to chromatin condensation”. For the same compound, in series [9], the 50% inhibitory concentration (IC50) is 3.82 to 17.8 µM.
